# Experimental data from ChEMBL document CHEMBL6078684, “Discovery of a Novel Non-invasive AR PROTAC Degrader for the Topical Treatment of Androgenetic Alopecia” (J Med Chem, 2024).
# The source made the active and inactive calls. The calls are words filed in the database; no cut-off is given here.
# Assays:
# [1] = Ratio of drug concentration in male ICR mouse skin to plasma at 4 mg/ml, TOP measured after 4 hrs by LC-MS/MS analysis; type: ADME, cell-free; details: other tissue, topical_or_ocular
# [2] = Ratio of drug concentration in male ICR mouse skin to liver at 4 mg/ml, TOP measured after 8 hrs by LC-MS/MS analysis; type: ADME, tissue-based; details: in vivo, topical_or_ocular
# [3] = target: T1, Protein cereblon/Androgen receptor (Homo sapiens, UniProt P10275+Q96SW2); assay: PROTAC activity at CRBN/AR in human dermal papilla cells assessed as decrease in TGF-beta1 expression level at 250 to 1000 nM preincubated with testosterone for 24 hrs followed by compound addition and measured after 48 hrs by Western blot analysis; type: cell-based; details: Human dermal papilla cell, dose 250-1000 nM
# [4] = Ratio of drug concentration in male ICR mouse skin to spleen at 4 mg/ml, TOP measured after 1 hrs by LC-MS/MS analysis; type: ADME, tissue-based; details: in vivo, topical_or_ocular
# [5] = tested on: Mus musculus; assay: Hair regeneration efficacy in testosterone induced male C57BL/6 mouse androgenetic alopecia model assessed as entry of hair follicles to anagen phase by measuring high density of enlarged hair bulbs in subcutaneous tissue at 0.4 %, TOP administered once daily for 14 days with co-administration of 0.2% testosterone for 28 days by H and E staining based analysis; type: functional, organism-based; details: time 14.0 day
# [6] = AUC (0 to t) in male ICR mouse skin at 4 mg/ml, TOP measured after 12 hrs by LC-MS/MS analysis; type: ADME, tissue-based, Skin of body; details: in vivo, topical_or_ocular
# [7] = tested on: Mus musculus; assay: Hair regeneration efficacy in testosterone induced male C57BL/6 mouse androgenetic alopecia model assessed as increase in hair cycle score at 0.4 %, TOP administered once daily for 14 days with co-administration of 0.2% testosterone for 28 days; type: functional, organism-based; details: time 14.0 day
# [8] = target: T1, Protein cereblon/Androgen receptor; assay: PROTAC activity at CRBN/AR in human dermal papilla cells assessed as inhibition of TGF-beta1 release by measuring TGF-beta1 concentration at 500 nM preincubated with testosterone for 24 hrs followed by compound addition and measured after 48 hrs by ELISA; type: cell-based; details: Human dermal papilla cell
# [9] = Ratio of drug concentration in male ICR mouse skin to lungs at 4 mg/ml, TOP measured after 2 hrs by LC-MS/MS analysis; type: ADME, tissue-based, Skin/Lung; details: in vivo, topical_or_ocular
# [10] = Ratio of drug concentration in male ICR mouse skin to spleen at 4 mg/ml, TOP measured after 0.5 hrs by LC-MS/MS analysis; type: ADME, tissue-based; details: in vivo, topical_or_ocular
# [11] = target: Protein cereblon/Androgen receptor (Mus musculus) (UniProt P19091+Q8C7D2); assay: In vivo PROTAC activity at CRBN/AR in testosterone induced male C57BL/6 mouse androgenetic alopecia model assessed as decrease in TGF-beta expression level in skin at 0.4 % TOP administered once daily for 14 days with co-administration of 0.2% testosterone for 28 days by DAPI staining based immunofluorescence analysis; type: functional, organism-based; details: time 14.0 day
# [12] = Cmax in male ICR mouse skin at 4 mg/ml, TOP measured after 12 hrs by LC-MS/MS analysis; type: ADME, tissue-based, Skin of body; details: topical or ocular
# [13] = tested on: Mus musculus; assay: Hair regeneration efficacy in testosterone induced male C57BL/6 mouse androgenetic alopecia model assessed as well formed stratum corneum in hair at 0.4 %, TOP administered once daily for 14 days with co-administration of 0.2% testosterone and measured after 28 days by SEM analysis; type: functional, organism-based; details: time 28.0 day
# [14] = Ratio of drug concentration in male ICR mouse skin to kidney at 4 mg/ml, TOP measured after 12 hrs by LC-MS/MS analysis; type: ADME, tissue-based; details: in vivo, topical_or_ocular
# [15] = target: T1, Protein cereblon/Androgen receptor; assay: PROTAC activity at CRBN/AR in human dermal papilla cells assessed as induction of AR degradation at 500 nM in presence of pomalidomide by Western blot analysis; type: cell-based; details: Human dermal papilla cell
# [16] = Ratio of drug concentration in male ICR mouse skin to spleen at 4 mg/ml, TOP measured after 4 hrs by LC-MS/MS analysis; type: ADME, tissue-based; details: in vivo, topical_or_ocular
# [17] = AUC (0 to t) in male ICR mouse plasma at 4 mg/ml, TOP measured after 12 hrs by LC-MS/MS analysis; type: ADME, cell-free; details: topical or ocular
# [18] = target: T1, Protein cereblon/Androgen receptor; assay: PROTAC activity at CRBN/AR in human dermal papilla cells assessed as decrease in AR protein level at 250 to 1000 nM preincubated with testosterone for 24 hrs followed by compound addition and measured after 48 hrs by Western blot analysis; type: cell-based; details: Human dermal papilla cell, dose 250-1000 nM
# [19] = tested on: Mus musculus; assay: Hair regeneration efficacy in testosterone induced male C57BL/6 mouse androgenetic alopecia model assessed as increase in hair density at 0.4 %, TOP administered once daily for 14 days with co-administration of 0.2% testosterone and measured after 28 days by trichoscope photographic analysis; type: functional, organism-based; details: time 28.0 day
# [20] = Ratio of drug concentration in male ICR mouse skin to spleen at 4 mg/ml, TOP measured after 0.25 hrs by LC-MS/MS analysis; type: ADME, tissue-based; details: in vivo, topical_or_ocular
# [21] = Ratio of drug concentration in male ICR mouse skin to kidney at 4 mg/ml, TOP measured after 4 hrs by LC-MS/MS analysis; type: ADME, tissue-based; details: in vivo, topical_or_ocular
# [22] = Ratio of drug concentration in male ICR mouse skin to heart at 4 mg/ml, TOP measured after 0.5 hrs by LC-MS/MS analysis; type: ADME, tissue-based; details: in vivo, topical_or_ocular
# [23] = tested on: Mus musculus; assay: Hair regeneration efficacy in testosterone induced male C57BL/6 mouse androgenetic alopecia model assessed as earlier pigmentation at 0.1 to 0.4 %, TOP administered once daily for 14 days and measured after 21 days with co-administration of 0.2% testosterone for 28 days by photographic analysis; type: functional, organism-based; details: dose 0.1-0.4 %, time 14.0 day
# [24] = target: T1, Protein cereblon/Androgen receptor; assay: PROTAC activity at CRBN/AR in human dermal papilla cell assessed as induction of AR degradation at 500 nM measured after 24 hrs by Western blot analysis; type: cell-based
# [25] = Ratio of drug concentration in male ICR mouse skin to lungs at 4 mg/ml, TOP measured after 0.25 hrs by LC-MS/MS analysis; type: ADME, tissue-based, Skin/Lung; details: in vivo, topical_or_ocular
# [26] = Drug uptake in male ICR mouse spleen at 4 mg/ml, TOP measured after 12 hrs by LC-MS/MS analysis; type: ADME, tissue-based; details: in vivo, topical_or_ocular
# [27] = target: T1, Protein cereblon/Androgen receptor; assay: PROTAC activity at CRBN/AR in human dermal papilla cells assessed as increase in beta-catenin protein level at 250 to 1000 nM preincubated with testosterone for 24 hrs followed by compound addition and measured after 48 hrs by Western blot analysis; type: cell-based; details: Human dermal papilla cell, dose 250-1000 nM
# [28] = Ratio of drug concentration in male ICR mouse skin to liver at 4 mg/ml, TOP measured after 4 hrs by LC-MS/MS analysis; type: ADME, tissue-based; details: in vivo, topical_or_ocular
# [29] = Ratio of drug concentration in male ICR mouse skin to kidney at 4 mg/ml, TOP measured after 1 hrs by LC-MS/MS analysis; type: ADME, tissue-based; details: in vivo, topical_or_ocular
# [30] = Ratio of drug concentration in male ICR mouse skin to lungs at 4 mg/ml, TOP measured after 12 hrs by LC-MS/MS analysis; type: ADME, tissue-based, Skin/Lung; details: in vivo, topical_or_ocular
# [31] = Ratio of drug concentration in male ICR mouse skin to kidney at 4 mg/ml, TOP measured after 2 hrs by LC-MS/MS analysis; type: ADME, tissue-based; details: in vivo, topical_or_ocular
# [32] = Ratio of drug concentration in male ICR mouse skin to heart at 4 mg/ml, TOP measured after 1 hrs by LC-MS/MS analysis; type: ADME, tissue-based; details: in vivo, topical_or_ocular
# [33] = target: T1, Protein cereblon/Androgen receptor; assay: PROTAC activity at CRBN/AR in human dermal papilla cells assessed as inhibition of TGF-beta1 release by measuring TGF-beta1 concentration at 1 uM preincubated with testosterone for 24 hrs followed by compound addition and measured after 48 hrs by ELISA; type: cell-based; details: Human dermal papilla cell
# T1 sequence (P10275 whole entry, looked up): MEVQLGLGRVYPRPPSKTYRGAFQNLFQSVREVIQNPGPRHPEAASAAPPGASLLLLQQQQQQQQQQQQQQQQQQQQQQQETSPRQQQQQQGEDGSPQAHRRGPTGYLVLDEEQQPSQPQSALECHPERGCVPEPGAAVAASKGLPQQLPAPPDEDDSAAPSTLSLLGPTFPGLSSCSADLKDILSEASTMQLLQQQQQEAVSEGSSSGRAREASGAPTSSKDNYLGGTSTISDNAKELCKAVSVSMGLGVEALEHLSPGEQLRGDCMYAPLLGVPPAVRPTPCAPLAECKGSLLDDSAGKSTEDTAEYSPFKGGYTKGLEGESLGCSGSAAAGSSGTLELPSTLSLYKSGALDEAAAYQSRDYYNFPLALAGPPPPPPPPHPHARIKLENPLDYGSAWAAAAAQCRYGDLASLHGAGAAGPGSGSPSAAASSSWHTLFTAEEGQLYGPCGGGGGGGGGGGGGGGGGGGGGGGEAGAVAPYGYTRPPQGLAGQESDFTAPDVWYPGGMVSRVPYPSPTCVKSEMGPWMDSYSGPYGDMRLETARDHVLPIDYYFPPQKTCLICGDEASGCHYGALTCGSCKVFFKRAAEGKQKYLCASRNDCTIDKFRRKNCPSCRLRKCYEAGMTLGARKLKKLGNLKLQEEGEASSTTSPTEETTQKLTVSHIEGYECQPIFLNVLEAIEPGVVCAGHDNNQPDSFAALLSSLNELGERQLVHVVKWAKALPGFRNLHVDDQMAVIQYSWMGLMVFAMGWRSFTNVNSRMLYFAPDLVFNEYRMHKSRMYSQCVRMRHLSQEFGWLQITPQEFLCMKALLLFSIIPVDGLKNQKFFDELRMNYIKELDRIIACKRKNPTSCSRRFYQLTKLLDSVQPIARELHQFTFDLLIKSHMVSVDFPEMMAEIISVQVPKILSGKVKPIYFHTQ
# T1 sequence (Q96SW2 whole entry, looked up): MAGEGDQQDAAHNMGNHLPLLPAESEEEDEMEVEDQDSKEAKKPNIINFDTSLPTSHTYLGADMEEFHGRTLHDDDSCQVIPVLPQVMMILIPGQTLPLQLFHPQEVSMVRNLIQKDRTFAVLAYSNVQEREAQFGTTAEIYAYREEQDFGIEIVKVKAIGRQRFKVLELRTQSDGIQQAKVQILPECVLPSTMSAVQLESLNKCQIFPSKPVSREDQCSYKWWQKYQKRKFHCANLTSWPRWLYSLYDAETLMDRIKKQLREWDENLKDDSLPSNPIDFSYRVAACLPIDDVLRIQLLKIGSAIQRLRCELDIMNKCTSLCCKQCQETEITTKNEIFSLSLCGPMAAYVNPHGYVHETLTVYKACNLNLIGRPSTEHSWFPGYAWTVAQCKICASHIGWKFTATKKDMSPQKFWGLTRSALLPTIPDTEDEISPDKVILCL
# Chain of Protein cereblon/Androgen receptor (Mus musculus) (P19091 whole entry, looked up): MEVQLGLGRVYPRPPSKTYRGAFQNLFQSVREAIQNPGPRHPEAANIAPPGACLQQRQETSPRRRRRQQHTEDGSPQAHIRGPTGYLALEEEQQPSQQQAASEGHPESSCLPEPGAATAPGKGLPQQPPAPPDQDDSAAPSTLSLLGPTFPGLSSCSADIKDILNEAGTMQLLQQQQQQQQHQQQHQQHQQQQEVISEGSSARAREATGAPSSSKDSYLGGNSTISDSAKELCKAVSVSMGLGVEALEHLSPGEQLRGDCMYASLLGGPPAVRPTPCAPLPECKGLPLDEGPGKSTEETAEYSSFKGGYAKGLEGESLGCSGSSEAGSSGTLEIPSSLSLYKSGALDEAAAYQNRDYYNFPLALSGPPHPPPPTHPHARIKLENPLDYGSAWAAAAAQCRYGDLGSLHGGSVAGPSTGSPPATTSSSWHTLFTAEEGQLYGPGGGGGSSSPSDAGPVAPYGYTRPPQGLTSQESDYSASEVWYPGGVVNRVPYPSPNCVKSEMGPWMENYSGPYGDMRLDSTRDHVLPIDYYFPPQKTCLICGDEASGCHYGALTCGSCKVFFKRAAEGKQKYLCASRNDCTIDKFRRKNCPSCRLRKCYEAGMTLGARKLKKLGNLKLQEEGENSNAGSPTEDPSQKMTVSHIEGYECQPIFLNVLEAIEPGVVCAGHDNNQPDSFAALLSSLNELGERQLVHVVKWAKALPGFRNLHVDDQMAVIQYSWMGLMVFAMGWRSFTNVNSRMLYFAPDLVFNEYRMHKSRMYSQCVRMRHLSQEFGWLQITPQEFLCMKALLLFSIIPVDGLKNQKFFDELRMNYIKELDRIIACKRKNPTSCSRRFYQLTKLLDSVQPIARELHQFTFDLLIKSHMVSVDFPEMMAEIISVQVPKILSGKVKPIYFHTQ
# Chain of Protein cereblon/Androgen receptor (Mus musculus) (Q8C7D2 whole entry, looked up): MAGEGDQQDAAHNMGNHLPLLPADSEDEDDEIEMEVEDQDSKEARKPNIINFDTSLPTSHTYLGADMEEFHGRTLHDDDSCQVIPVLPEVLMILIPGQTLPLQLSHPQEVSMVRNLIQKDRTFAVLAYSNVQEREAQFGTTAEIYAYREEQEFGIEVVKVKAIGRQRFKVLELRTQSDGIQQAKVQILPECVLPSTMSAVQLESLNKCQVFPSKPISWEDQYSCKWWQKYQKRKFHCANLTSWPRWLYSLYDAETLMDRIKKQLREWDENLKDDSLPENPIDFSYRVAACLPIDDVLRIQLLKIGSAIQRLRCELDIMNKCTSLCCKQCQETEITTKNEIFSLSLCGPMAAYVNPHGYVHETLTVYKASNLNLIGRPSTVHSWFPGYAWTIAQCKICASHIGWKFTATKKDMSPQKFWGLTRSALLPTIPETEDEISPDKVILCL
structure (smiles),measurement,setting,value
N#Cc1ccc(O[C@H]2CC[C@H](NC(=O)c3ccc(C4CCN(CC5CCCN(c6ccc(C(=O)NC7CCC(=O)NC7=O)cc6)C5)CC4)cc3)CC2)cc1Cl (stereo partly drawn),Ratio,[1],1873.84
same,Ratio,[2],196.27
same,Activity,[3],Active
same,Ratio,[4],472.95
same,Activity,[5],Active
same,AUCt,[6],651924.91 ng·h/g
same,Activity,[7],Active
same,Activity,[8],869 pg/mL
same,Ratio,[9],198.98
same,Ratio,[10],67.05
same,Activity,[11],Active
same,Cmax,[12],86700 ng/g
same,Activity,[13],Active
same,Ratio,[14],101.26
same,Activity,[15],inactive
same,Ratio,[16],635.83
same,AUC(0-t) at 12 h,[17],992 ng·h/mL
same,Activity,[18],Active
same,Activity,[19],Active
same,Ratio,[20],510.81
same,Ratio,[21],285.69
same,Ratio,[22],119.61
same,Activity,[23],Active
same,Activity,[24],Active; Maximum Degradation Level Observed
same,Ratio,[25],269.54
same,Drug uptake,[26],Active
same,Activity,[27],Active
same,Ratio,[28],629.99
same,Ratio,[29],467.24
same,Ratio,[30],288.26
same,Ratio,[31],410.02
same,Ratio,[32],996.6
same,Activity,[33],736 pg/mL
